The source of these data is patent US11479537B2, “T-type calcium channel inhibitor” (KINKI UNIVERSITY, priority 2017, dated 2022).

SMILES strings stand for the structures.

The term IC50 denotes the point on the concentration scale where inhibition reaches its midpoint.

In assay [1] the test system is human T-type calcium channel. The assay can be described thus: Whole-cell patch clamp measurement of T-type calcium channel inhibition (barium T-current). Type of assay: cell-based. As to conditions: for Inhibition rate (%): EK293 cell forcibly expressing human T-type calcium channel, 6 cases; for T-type calcium channel inhibitory action (in words): whole-cell patch clamp, in vitro; for Ratio of IC50 value to IC50 value of 6-prenylnaringenin (%): IC50 as percentage of the IC50 of 6-prenylnaringenin, measured as in Example 1. On the procedure: Using a human kidney cell-derived cell line, an EK293 cell, in which a human T-type calcium channel was forcibly expressed, the inhibitory effect of 6-prenylnaringenin on the T-type calcium channel was measured by the whole cell patch clamp method.
In the whole-cell patch clamp method, the following solutions are used as an external solution and an internal solution, the holding potential is set to −80 mV, and the barium current was measured as an inward current flow upon a potential jump from −80 mV to −20 mV. Here, in order to eliminate the influence of the high threshold activated-calcium channel, a value obtained by subtracting the current at 150 ms after the start of stimulation from the peak current was used as a T-channel current (T-current) for data analysis.
External Solution Composition
Aqueous solution containing the following: • 97 mM N-methyl-D-glucamine (NMDG); • 10 mM BaCl2; • 10 mM 4-(2-hydroxyethyl)-1-piperazine ethanesulfonic acid (HEPES); • 40 mM tetraethylammonium chloride (TEA-Cl); and • 5 mM glucose • (pH 7.4). Internal Solution Composition
Aqueous solution containing the following: • 4 mM MgCl2; • 140 mM CsCl; • 10 mM HEPES; and • 5 mM glycol ether diamine tetraacetic acid (EGTA) • (pH 7.2).
The inhibitory effect of the compound of the present invention on the T-type calcium channel was measured in the same manner as in Example 1, except that the compound of the present invention was used instead of 6-prenylnaringenin.
(In general: In patch-clamp work, channel activity is measured electrically.)

Assay [2] concerns PSNL-induced hyperalgesia. As to the kind of experiment: Partial sciatic nerve ligation (PSNL)-induced hyperalgesia, pain threshold by von Frey method. The following applies: 10 to 30 mg/kg intraperitoneally, mice 7 days after PSNL, versus vehicle group after PSNL. It is filed as in vivo, ddY male mice. On the procedure: PSNL-induced hyperalgesia was performed using ddY male mice under inhaled isoflurane anesthesia by incising the skin on the femur of the mouse and exposing ⅓ to ½ of the exposed sciatic nerve was completely ligated with a 8-0 suture. […] The pain threshold was measured by the von Frey method.
Compounds-40, 41, 45 and 47 were suspended in 5% aqueous carboxymethylcellulose and administered intraperitoneally using mice after 7 days of PSNL treatment, which is considered to be a chronic phase in which hyperalgesia is stable, and Pain thresholds were measured every minute. As controls, a group to which a solvent was administered after sham operation and a group to which a solvent and 6-prenylnaringenin were administered after induction of hyperalgesia by PNSL were provided.

As for `CC(C)=CCc1c(O)cc2c(c1O)C(=O)C[C@@H](c1ccc(O)cc1)O2` [6-prenylnaringenin, 6-Prenylnaringenin, reference compound], in assay [1] (calculated by GraphPad Prism from the results of Example 1), the IC50 was 801 nM. In addition, the “Inhibition rate (%)” value in assay [1] (compound concentration 300 nM) came to 0%; in assay [1] (compound concentration 1000 nM), 82.7%; in assay [1] (compound concentration 3000 nM), 99.0%. Besides, the “T-type calcium channel inhibitory action (in words)” value in assay [1] is recorded as “excellent T-type calcium channel inhibitory action”.

Take `CC(C)=CCc1c(O)cc2c(c1O)C(=O)CC(c1ccccc1O)O2` (stereo not shown) [Compound-33, 5,7-dihydroxy-2-(2-hydroxy-phenyl)-6-(3-methyl-but-2-enyl)-chroman-4-one]: in assay [1], the “Ratio of IC50 value to IC50 value of 6-prenylnaringenin (%)” value (“Ratio of IC50 value to IC50 value … (%)” for short) was 12.2%.

For `CC(C)=CCc1c(O)cc2c(c1O)C(=O)CC(c1cccc(O)c1)O2` (stereo not shown) [Compound-34, 5,7-dihydroxy-2-(3-hydroxy-phenyl)-6-(3-methyl-but-2-enyl)-chroman-4-one], the “Ratio of IC50 value to IC50 value … (%)” value in assay [1] is 12.5%.

As to `CC(C)=CCc1c(O)cc2c(c1O)C(=O)CC(c1ccc(O)c(O)c1)O2` (stereo not shown) [Compound-36, 2-(3,4-dihydroxy-phenyl)-5,7-dihydroxy-6-(3-methyl-but-2-enyl)-chroman-4-one], the “Ratio of IC50 value to IC50 value … (%)” value in assay [1] is listed as 87.5%.

In the case of `CC(C)CCc1c(O)cc2c(c1O)C(=O)CC(c1ccc(O)cc1)O2` (stereo not shown) [Compound-39, 5,7-dihydroxy-2-(4-hydroxy-phenyl)-6-(3-methyl-butyl)-chroman-4-one], the “Ratio of IC50 value to IC50 value … (%)” value in assay [1] is 10.6%.

In the case of `CCC(=CCc1c(O)cc2c(c1O)C(=O)CC(c1ccc(O)cc1)O2)CC` (stereo not shown) [Compound-40, 6-(3-ethyl-pent-2-enyl)-5,7-dihydroxy-2-(4-hydroxy-phenyl)-chroman-4-one], the “Effect on PSNL-induced hyperalgesia (pain threshold)” value (shortened to “Effect on PSNL-induced hyperalgesia”) in assay [2] is given as “significantly suppressed hyperalgesia”. For the same compound, in assay [1], the “Ratio of IC50 value to IC50 value … (%)” value came out at 7.7% and the “T-type calcium channel inhibitory action (in words)” value is on record as “excellent T-type calcium channel inhibitory activity in vitro”.

In the case of `O=C1CC(c2ccc(O)cc2)Oc2cc(O)c(CC=C3CCCC3)c(O)c21` (stereo not shown) [Compound-41, 6-(2-cyclopentylidene-ethyl)-5,7-dihydroxy-2-(4-hydroxy-phenyl)-chroman-4-one], the “Effect on PSNL-induced hyperalgesia” value in assay [2] is on record as “significantly suppressed hyperalgesia”. Also, in assay [1], the “Ratio of IC50 value to IC50 value … (%)” value stood at 9.0% and the “T-type calcium channel inhibitory action (in words)” value was “excellent T-type calcium channel inhibitory activity in vitro”.

For `CC(C)=CCc1c(O)cc2c(c1O)C(=O)CC(c1c(O)cccc1O)O2` (stereo not shown) [Compound-42, 2-(2,6-dihydroxy-phenyl)-5,7-dihydroxy-6-(3-methyl-but-2-enyl)-chroman-4-one], the “Ratio of IC50 value to IC50 value … (%)” value in assay [1] came out at 72.3%.

On to `CC(C)=CCc1ccc2c(c1O)C(=O)CC(c1ccccc1O)O2` (stereo not shown) [Compound-43, 5-hydroxy-2-(2-hydroxy-phenyl)-6-(3-methyl-but-2-enyl)-chroman-4-one], for which the “Ratio of IC50 value to IC50 value … (%)” value in assay [1] is recorded as 26.6%.

As to `CCC(=CCc1c(O)cc2c(c1O)C(=O)CC(c1ccccc1O)O2)CC` (stereo not shown) [Compound-45, 6-(3-ethyl-pent-2-enyl)-5,7-dihydroxy-2-(2-hydroxy-phenyl)-chroman-4-one], in assay [2], the “Effect on PSNL-induced hyperalgesia” value is “significantly suppressed hyperalgesia”. In addition, in assay [1], the “Ratio of IC50 value to IC50 value … (%)” value was 2.3% and the “T-type calcium channel inhibitory action (in words)” value was “excellent T-type calcium channel inhibitory activity in vitro”.

In the case of `CCC(CC)CCc1c(O)cc2c(c1O)C(=O)CC(c1ccc(O)cc1)O2` (stereo not shown) [Compound-46, 6-(3-ethyl-pentyl)-5,7-dihydroxy-2-(4-hydroxy-phenyl)-chroman-4-one], the “Ratio of IC50 value to IC50 value … (%)” value in assay [1] was determined as 15.0%.

For `O=C1CC(c2ccc(O)cc2)Oc2cc(O)c(CCC3CCCC3)c(O)c21` (stereo not shown) [Compound-47, 6-(2-cyclopentyl-ethyl)-5,7-dihydroxy-2-(4-hydroxy-phenyl)-chroman-4-one], in assay [2], the “Effect on PSNL-induced hyperalgesia” value was “significantly suppressed hyperalgesia”. Moreover, in assay [1], the “Ratio of IC50 value to IC50 value … (%)” value came out at 8.1% and the “T-type calcium channel inhibitory action (in words)” value is recorded as “excellent T-type calcium channel inhibitory activity in vitro”.

On to `CCCC(=CCc1c(O)cc2c(c1O)C(=O)CC(c1ccc(O)cc1)O2)CCC` (stereo not shown) [Compound-48, 5,7-dihydroxy-2-(4-hydroxy-phenyl)-6-(3-propyl-hex-2-enyl)-chroman-4-one], for which the “Ratio of IC50 value to IC50 value … (%)” value in assay [1] turned out to be 54.8%.
